Patent publication US20160058782A1, “MAILLARD REACTION INHIBITOR” (MORISHITA JINTAN CO., LTD., priority 2011, published 2016)
Converted amounts (≈) assume the structure as drawn.

Tested on: Maillard reaction (Human Serum Albumin and Glucose)
Experiment: Measurement of the Maillard reaction inhibitory activity (fluorescent products of human serum albumin and glucose, 60° C., 40 hours)
Details: for IC50 values compared with tannic acid, ellagic acid dihydrate and aminoguanidine / Maillard reaction inhibitory activity compared with aminoguanidine (positive control) / Maillard reaction inhibition ratio (%) compared with ellagic acid dihydrate and aminoguanidine: in words; for Maillard reaction inhibitory activity compared with aminoguanidine (positive control): Tables 2 and 3; for Maillard reaction inhibition ratio (%) compared with ellagic acid dihydrate and aminoguanidine: when prepared at lower concentrations; for IC50: human, 40 h
Experimental: A pomegranate extract (containing 50% by mass of polyphenol; manufactured by Morishita Jintan Co., Ltd.), punicalin, punicalagin, oenothein B, eucarbanin B, punicacortein C, a compound represented by the formula (VI), and a compound represented by the formula (VII) were used as samples to be examined. Tannic acid and ellagic acid dihydrate were used for comparison. Aminoguanidine was used as a positive control. […], 300 μg/mL and 1,000 μg/mL, and the Maillard reaction inhibitory activity of the prepared solutions was measured. The inhibitory activity was measured as follows.
Four reaction solutions A to D shown in Table 1 below were prepared using the above-described prepared solutions of the samples, and were incubated at 60° C. for 40 hours to cause the Maillard reaction. Thereafter, 400 μL of the reaction solutions A to D was diluted with 2,400 μL of distilled water and diluted samples were obtained. The fluorescence intensity (the excitation light: 370 nm; the measurement light: 440 nm) of the diluted samples was measured and was expressed as a relative value with respect to the fluorescence intensity of 0.1 μg/mL solution of quinine sulfate that was taken as 100 to calculate the amount of fluorescent products of the Maillard reaction (quantitative value).
Next, the Maillard reaction inhibition ratio (%) with respect to the above-described prepared solutions (concentration (μg/mL)) of the samples was calculated from the obtained quantitative value using the following equation.
Equation: Inhibition ratio (%)=100−[(a−b)/(c−d)]×100 [Formula 1]
where a represents a relative value (−) of the fluorescent products of the Maillard reaction with the reaction solution A calculated in terms of quinine sulfate,
b represents a relative value (−) of the fluorescent products of the Maillard reaction in terms of quinine sulfate when the reaction solution B is used,
c represents a relative value (−) of the fluorescent products of the Maillard reaction in terms of quinine sulfate when the reaction solution C is used, and
d represents a relative value (−) of the fluorescent products of the Maillard reaction in terms of quinine sulfate when the reaction solution D is used.
Thereafter, 50% inhibition ratio (IC50) of each sample was calculated as follows. That is, the inhibition ratio was plotted with respect to the sample concentration, 4-parameter plot was performed, and the concentration showing an inhibition ratio of 50% was taken as IC50.

O=C(OC1C(O)OC2COC(=O)c3cc(Oc4c(C(=O)OC5C(O)OC6COC(=O)c7cc(Oc8c(C(=O)OC9C(O)OC%10COC(=O)c%11cc(Oc%12c(C(=O)OC%13C(O)OC%14COC(=O)c%15cc(O)c(O)c(O)c%15-c%15c(cc(O)c(O)c%15O)C(=O)O[C@H]%14C%13OC(=O)c%13cc(O)c(O)c(O)c%13)cc(O)c(O)c%12O)c(O)c(O)c%11-c%11c(cc(O)c(O)c%11O)C(=O)O[C@H]%10C9OC(=O)c9cc(O)c(O)c(O)c9)cc(O)c(O)c8O)c(O)c(O)c7-c7c(cc(O)c(O)c7O)C(=O)O[C@H]6C5OC(=O)c5cc(O)c(O)c(O)c5)cc(O)c(O)c4O)c(O)c(O)c3-c3c(cc(O)c(O)c3O)C(=O)O[C@H]2C1OC(=O)c1cc(O)c(O)c(O)c1)c1cc(O)c(O)c(O)c1 (stereo partly shown)
Maillard reaction inhibition ratio (%) (Conc. 0.01 mg/mL): 30.4% | Maillard reaction inhibition ratio (%) (Conc. 0.1 mg/mL): 40.3% | Maillard reaction inhibition ratio (%) (Conc. 1 mg/mL): 74.3% | Maillard reaction inhibition ratio (%) (Conc. 10 mg/mL): 82.5% | IC50 values compared with tannic acid, ellagic acid dihydrate and aminoguanidine: particularly low | Maillard reaction inhibitory activity compared with aminoguanidine (positive control): superior Maillard reaction inhibitory activity to aminoguanidine | Maillard reaction inhibition ratio (%) compared with ellagic acid dihydrate and aminoguanidine: particularly superior

N=C(N)NN [Aminoguanidine, reference compound]
Maillard reaction inhibition ratio (%) (Conc. 100 mg/mL): 40.2% | Maillard reaction inhibition ratio (%) (Conc. 300 mg/mL): 51.4% | Maillard reaction inhibition ratio (%) (Conc. 1000 mg/mL): 62% | IC50: 273 µg/mL (≈ 3690 µM)

O=C(OC1C(O)OC2COC(=O)c3cc(Oc4c(C(=O)OC5C(O)OC6COC(=O)c7cc(Oc8c(C(=O)OC9C(O)OC%10COC(=O)c%11cc(O)c(O)c(O)c%11-c%11c(cc(O)c(O)c%11O)C(=O)O[C@H]%10C9OC(=O)c9cc(O)c(O)c(O)c9)cc(O)c(O)c8O)c(O)c(O)c7-c7c(cc(O)c(O)c7O)C(=O)O[C@H]6C5OC(=O)c5cc(O)c(O)c(O)c5)cc(O)c(O)c4O)c(O)c(O)c3-c3c(cc(O)c(O)c3O)C(=O)O[C@H]2C1OC(=O)c1cc(O)c(O)c(O)c1)c1cc(O)c(O)c(O)c1 (stereo partly shown) [Compound represented by the formula (VI)]
Maillard reaction inhibition ratio (%) (Conc. 0.1 mg/mL): 46.6% | Maillard reaction inhibition ratio (%) (Conc. 1 mg/mL): 76.7% | Maillard reaction inhibition ratio (%) (Conc. 10 mg/mL): 95.4% | IC50: 0.13 µg/mL | IC50 values compared with tannic acid, ellagic acid dihydrate and aminoguanidine: particularly low | Maillard reaction inhibitory activity compared with aminoguanidine (positive control): superior Maillard reaction inhibitory activity to aminoguanidine

O=c1oc2c(O)c(O)cc3c(=O)oc4c(O)c(O)cc1c4c23 [Ellagic acid dihydrate, ellagic acid dihydrate, reference compound]
Maillard reaction inhibition ratio (%) (Conc. 0.01 mg/mL): 1.9% | Maillard reaction inhibition ratio (%) (Conc. 0.03 mg/mL): 2.2% | Maillard reaction inhibition ratio (%) (Conc. 0.1 mg/mL): 12.0% | Maillard reaction inhibition ratio (%) (Conc. 0.3 mg/mL): 44.8% | Maillard reaction inhibition ratio (%) (Conc. 1 mg/mL): 68.3% | Maillard reaction inhibition ratio (%) (Conc. 10 mg/mL): 78.4% | IC50: 0.34 µg/mL

O=C(OC1C(O)OC2COC(=O)c3cc(Oc4c(C(=O)OC5C(O)OC6COC(=O)c7cc(O)c(O)c(O)c7-c7c(cc(O)c(O)c7O)C(=O)O[C@H]6C5OC(=O)c5cc(O)c(O)c(O)c5)cc(O)c(O)c4O)c(O)c(O)c3-c3c(cc(O)c(O)c3O)C(=O)O[C@H]2C1OC(=O)c1cc(O)c(O)c(O)c1)c1cc(O)c(O)c(O)c1 (stereo partly shown) [Eucarbanin B, eucarbanin B]
Maillard reaction inhibition ratio (%) (Conc. 0.1 mg/mL): 21.2% | Maillard reaction inhibition ratio (%) (Conc. 1 mg/mL): 72.9% | Maillard reaction inhibition ratio (%) (Conc. 10 mg/mL): 79.4% | IC50: 0.43 µg/mL (≈ 0.274 µM) | Maillard reaction inhibitory activity compared with aminoguanidine (positive control): superior Maillard reaction inhibitory activity to aminoguanidine

O=C1OC2C(O)OC3COC(=O)c4cc(O)c(O)c(O)c4-c4c(O)c(O)c5oc(=O)c6c(c(O)c(O)c7oc(=O)c4c5c76)-c4c(cc(O)c(O)c4O)C(=O)O[C@H]3C2OC(=O)c2cc(O)c(O)c(O)c2-c2c1cc(O)c(O)c2O (stereo partly shown) [Punicalagin, punicalagin]
Maillard reaction inhibition ratio (%) (Conc. 0.01 mg/mL): 4.3% | Maillard reaction inhibition ratio (%) (Conc. 0.03 mg/mL): 10.9% | Maillard reaction inhibition ratio (%) (Conc. 0.1 mg/mL): 36.2% | Maillard reaction inhibition ratio (%) (Conc. 0.3 mg/mL): 71.4% | Maillard reaction inhibition ratio (%) (Conc. 1 mg/mL): 73.5% | Maillard reaction inhibition ratio (%) (Conc. 10 mg/mL): 86.1% | IC50 values compared with tannic acid, ellagic acid dihydrate and aminoguanidine: particularly low | Maillard reaction inhibitory activity compared with aminoguanidine (positive control): superior Maillard reaction inhibitory activity to aminoguanidine | Maillard reaction inhibition ratio (%) compared with ellagic acid dihydrate and aminoguanidine: particularly superior

O=C1OC[C@H]2OC(O)[C@H](O)[C@@H](O)[C@@H]2OC(=O)c2cc(O)c(O)c(O)c2-c2c(O)c(O)c3oc(=O)c4c(c(O)c(O)c5oc(=O)c2c3c54)-c2c1cc(O)c(O)c2O (stereo partly shown) [Punicalin, punicalin]
Maillard reaction inhibition ratio (%) (Conc. 0.01 mg/mL): 7.6% | Maillard reaction inhibition ratio (%) (Conc. 0.03 mg/mL): 6.5% | Maillard reaction inhibition ratio (%) (Conc. 0.1 mg/mL): 32.1% | Maillard reaction inhibition ratio (%) (Conc. 0.3 mg/mL): 69.6% | Maillard reaction inhibition ratio (%) (Conc. 1 mg/mL): 73.1% | Maillard reaction inhibition ratio (%) (Conc. 10 mg/mL): 84.9% | IC50 values compared with tannic acid, ellagic acid dihydrate and aminoguanidine: particularly low | Maillard reaction inhibitory activity compared with aminoguanidine (positive control): superior Maillard reaction inhibitory activity to aminoguanidine | Maillard reaction inhibition ratio (%) compared with ellagic acid dihydrate and aminoguanidine: particularly superior

O=C(OC[C@H]1O[C@@H](OC(=O)c2cc(O)c(O)c(OC(=O)c3cc(O)c(O)c(O)c3)c2)[C@H](OC(=O)c2cc(O)c(O)c(OC(=O)c3cc(O)c(O)c(O)c3)c2)[C@@H](OC(=O)c2cc(O)c(O)c(OC(=O)c3cc(O)c(O)c(O)c3)c2)[C@@H]1OC(=O)c1cc(O)c(O)c(OC(=O)c2cc(O)c(O)c(O)c2)c1)c1cc(O)c(O)c(OC(=O)c2cc(O)c(O)c(O)c2)c1 [Tannic acid, reference compound]
Maillard reaction inhibition ratio (%) (Conc. 0.01 mg/mL): 12.7% | Maillard reaction inhibition ratio (%) (Conc. 0.1 mg/mL): 48.7% | Maillard reaction inhibition ratio (%) (Conc. 1 mg/mL): 65.1% | Maillard reaction inhibition ratio (%) (Conc. 10 mg/mL): 68.8% | IC50: 0.31 µg/mL (≈ 0.182 µM)
